Assay [1] has as its target Potassium-transporting ATPase (Sus scrofa, UniProt P18434+P19156). Briefly: Inhibition of H+/K+ ATPase from porcine gastric mucosal membrane vesicles. The class given is tissue-based, Gastric mucosa.
The target of assay [2] is T1, Potassium-transporting ATPase (Rattus norvegicus) (UniProt P09626+P18598). Put plainly: Gastric antisecretory activity was tested in rats at 30 mg/kg, po expressed as the percentage of inhibition against the acid output of the control group. The class given is functional, organism-based. Also on record: dose 30 mg/kg.
Assay [3] has as its target T1, Potassium-transporting ATPase (Rattus norvegicus). Put plainly: Effect in vivo on gastric H+/K+ -ATPase activity at 48 hrs following intraduodenal administration of 40 mg/Kg in rats. To be noted: Stomach. The class given is functional, organism-based.
Assay [4] shares this target. Put plainly: Effect in vivo on gastric H+/K+ -ATPase activity at 24 hrs following intraduodenal administration of 40 mg/Kg in rats. The class given is functional, organism-based. Conditions: Stomach; call rule not given here.
The target is the same in assay [5]. Put plainly: Effect in vivo on gastric H+/K+ -ATPase activity at 6 hrs following intraduodenal administration of 40 mg/Kg in rats. To be noted: Stomach. It counts as functional, organism-based.
Assay [6] has the same target. Briefly: Effect in vivo on gastric H+/K+ ATPase activity at 48 hrs following intraduodenal administration of 40 mg/Kg in rats injected intraperitoneally with 1 mg/Kg of cycloheximide. The class given is functional, organism-based. To be noted: Stomach.
Assay [7] shares this target. Briefly: Effect in vivo on gastric H+/K+ ATPase activity at 1.5 hrs following intraduodenal administration of 40 mg/Kg in rats. It counts as functional, organism-based. Conditions: Stomach.
Assay [8] has the same target. Put plainly: Effect in vivo on gastric H+/K+ ATPase activity at 24 hrs following intraduodenal administration of 40 mg/Kg in rats injected intraperitoneally with 1 mg/Kg of cycloheximide. It counts as functional, organism-based. To be noted: Stomach.
The target is the same in assay [9]. Put plainly: Effect in vivo on gastric H+/K+ -ATPase activity at 3 hrs following intraduodenal administration of 40 mg/Kg in rats. The class given is functional, organism-based. Conditions: Stomach.
Assay [10] addresses Potassium-transporting ATPase (Sus scrofa, UniProt P19156). Put plainly: In vitro inhibition against H+/K+ ATPase from porcine gastric mucosal membrane vesicles. The class given is tissue-based, Gastric mucosa.
Assay [11] concerns the target T1, Potassium-transporting ATPase (Rattus norvegicus). Put plainly: Effect in vivo on gastric H+/K+ ATPase activity at 3 hrs following intraduodenal administration of 40 mg/Kg in rats. It counts as functional, organism-based. To be noted: Stomach.
Assay [12] shares this target. Put plainly: Effect in vivo on gastric H+/K+ ATPase activity at 24 hrs following intraduodenal administration of 40 mg/Kg in rats. Conditions: Stomach. The class given is functional, organism-based.
Assay [13] has the same target. Put plainly: Effect in vivo on gastric H+/K+ ATPase activity at 10 hrs following intraduodenal administration of 40 mg/Kg in rats injected intraperitoneally with 1 mg/Kg of cycloheximide. The class given is functional, organism-based. To be noted: Stomach.
The target is the same in assay [14]. Put plainly: Effect in vivo on gastric H+/K+ ATPase activity at 6 hrs following intraduodenal administration of 40 mg/Kg in rats. It counts as functional, organism-based. Conditions: Stomach.
Assay [15] has the same target. Briefly: Effect in vivo on gastric H+/K+ ATPase activity at 10 hrs following intraduodenal administration of 40 mg/Kg in rats. To be noted: Stomach. The class given is functional, organism-based.

The structures appear in SMILES notation. A value given as a limit tells only on which side of the number the result lay.

Sequence of Potassium-transporting ATPase (Sus scrofa, UniProt P18434+P19156) (P18434 whole entry): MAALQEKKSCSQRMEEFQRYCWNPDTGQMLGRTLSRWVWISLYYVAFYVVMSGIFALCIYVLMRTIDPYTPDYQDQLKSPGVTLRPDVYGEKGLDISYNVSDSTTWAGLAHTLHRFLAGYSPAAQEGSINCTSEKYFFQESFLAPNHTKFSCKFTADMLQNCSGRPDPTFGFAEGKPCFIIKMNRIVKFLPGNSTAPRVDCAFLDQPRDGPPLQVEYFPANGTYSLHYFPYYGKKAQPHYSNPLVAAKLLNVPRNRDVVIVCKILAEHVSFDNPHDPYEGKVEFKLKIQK
Sequence of Potassium-transporting ATPase (Sus scrofa, UniProt P18434+P19156) (P19156 whole entry): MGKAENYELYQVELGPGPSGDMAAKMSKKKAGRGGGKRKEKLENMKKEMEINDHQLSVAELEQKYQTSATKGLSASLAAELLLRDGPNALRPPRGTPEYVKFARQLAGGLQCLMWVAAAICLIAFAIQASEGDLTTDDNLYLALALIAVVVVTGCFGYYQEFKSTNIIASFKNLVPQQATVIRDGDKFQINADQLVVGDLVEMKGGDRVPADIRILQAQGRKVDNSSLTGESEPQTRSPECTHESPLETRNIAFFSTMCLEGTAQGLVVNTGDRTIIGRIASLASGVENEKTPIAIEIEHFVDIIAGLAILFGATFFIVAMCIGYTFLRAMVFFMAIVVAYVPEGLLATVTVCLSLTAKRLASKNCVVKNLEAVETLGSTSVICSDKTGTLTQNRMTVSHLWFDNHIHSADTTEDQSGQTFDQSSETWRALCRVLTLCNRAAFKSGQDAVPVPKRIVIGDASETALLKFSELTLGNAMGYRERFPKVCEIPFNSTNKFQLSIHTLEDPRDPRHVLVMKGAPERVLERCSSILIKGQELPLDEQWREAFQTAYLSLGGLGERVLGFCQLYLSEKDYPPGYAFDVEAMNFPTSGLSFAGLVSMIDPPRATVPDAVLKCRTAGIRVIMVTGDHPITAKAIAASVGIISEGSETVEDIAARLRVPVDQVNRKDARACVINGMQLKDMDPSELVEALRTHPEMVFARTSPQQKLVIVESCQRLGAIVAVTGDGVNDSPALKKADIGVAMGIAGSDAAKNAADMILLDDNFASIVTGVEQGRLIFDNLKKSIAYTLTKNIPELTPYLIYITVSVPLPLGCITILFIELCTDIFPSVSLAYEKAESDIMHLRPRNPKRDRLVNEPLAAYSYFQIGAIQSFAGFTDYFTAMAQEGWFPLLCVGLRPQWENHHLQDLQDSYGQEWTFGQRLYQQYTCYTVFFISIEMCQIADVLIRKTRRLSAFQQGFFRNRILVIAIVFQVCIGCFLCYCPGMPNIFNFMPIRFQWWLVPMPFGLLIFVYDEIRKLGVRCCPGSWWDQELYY
Sequence of Potassium-transporting ATPase (Sus scrofa, UniProt P19156) (P18434 whole entry): as the sequence (P18434 whole entry) above
Sequence of Potassium-transporting ATPase (Sus scrofa, UniProt P19156) (P19156 whole entry): as the sequence (P19156 whole entry) above

A word on the IC50: it is the point on the concentration scale where inhibition reaches its midpoint. The low end stands for greater potency, the high end for weaker potency. As usually defined, the inhibition is how much of the control response was suppressed. Low values mean little suppression, high ones strong suppression. Consider `[O-][S+](Cc1ccccc1N1CCOCC1)c1nc2c(n1-c1ccccn1)CCC2` (configuration not stated), for which the IC50 result in assay [1] is given as “Not Active”. This molecule also yielded an inhibition in assay [2] of 80%.
On to `Cc1cccnc1-n1ccnc1[S+]([O-])Cc1ccccc1N1CCOCC1` (configuration not stated), for which the IC50 entry in assay [1] is reported as “Not Active”. Further, the inhibition in assay [2] worked out at 100%.
For `CCN(CC)c1ccccc1C[S+]([O-])c1nc2c(n1-c1cccnc1)CCC2` (configuration not stated) the same measures were “Not Active” and 0%.
Take `COc1cccnc1-n1ccnc1[S+]([O-])Cc1ccccc1N1CCOCC1` (configuration not stated): the IC50 entry in [1] is listed as “Not Active”. Moreover, the inhibition in assay [2] was 85%.
For `CN(C)c1ccccc1C[S+]([O-])c1ncc(-c2ccccc2)n1Cc1ccccc1` (configuration not stated) the same measures were “Not Active” and 0%.
On to `[O-][S+](Cc1ccccc1-n1cccn1)c1nccn1-c1ccccn1` (configuration not stated), for which the IC50 result in assay [1] is reported as “Not Active”. Also, in assay [2], the inhibition came out at 0%.
For `CN(C)c1ccccc1C[S+]([O-])c1nccn1-c1cnccn1` (configuration not stated) the same measures were “Not Active” and 30%.
For `CCN(CC)c1ccccc1C[S+]([O-])c1nc2c(n1-c1ccncc1)CCC2` (configuration not stated) the same measures were “Not Active” and 0%.
The matching figures for `CN(C)c1ccccc1C[S+]([O-])c1nc(-c2ccccc2)c(-c2ccccc2)[nH]1` (configuration not stated): “Not Active” and 0%.
In the case of `CN(C)c1ccccc1C[S+]([O-])c1ncc(-c2ccccc2)n1C` (configuration not stated), the IC50 entry in [1] is on record as “Not Active”. The molecule also had an inhibition in assay [2] of 0%.
For `CC(=O)Nc1ccccc1C[S+]([O-])c1nc2c(n1-c1ccccn1)CCC2` (configuration not stated) the same measures were “Not Active” and 75%.
Turning to `COc1ccc2[nH]c([S+]([O-])Cc3ncc(C)c(OC)c3C)nc2c1` (configuration not stated), the Control in [3] is 71.1%; in assay [4] it was 51.7%; in [5], 27.8%; in assay [6], 34.1%; in assay [7], 45.4%; in assay [8], 36.1%. Moreover, the Control in [9] turned out to be 37.1%. In assay [2], this molecule came in with an inhibition of 100%.
Take `[O-][S+](Cc1ccccc1-n1ccnc1)c1nccn1-c1ccccn1` (configuration not stated): the IC50 result in [1] is recorded as “Not Active”. For the same molecule, the inhibition in [2] came to 22%.
For `COc1cccnc1-n1ccnc1[S+]([O-])Cc1ccccc1-n1cccc1` (configuration not stated) the same measures were “Not Active” and 39%.
For `CCN(CC)c1ccccc1C[S+]([O-])c1nc2c(n1-c1ncccc1C)CCC2` (configuration not stated) the same measures were “Not Active” and 53%.
The matching figures for `CN(C)c1ccccc1C[S+]([O-])c1nccn1-c1ncccn1` (configuration not stated): “Not Active” and 30%.
Turning to `[O-][S+](Cc1ccccc1N1CCCCC1)c1nccn1-c1ccccn1` (configuration not stated), the IC50 result in assay [1] is “Not Active”. The molecule also yielded an inhibition in assay [2] of 100%.
The matching figures for `[O-][S+](Cc1ccccc1N1CCOCC1)c1nccn1-c1ccccn1` (configuration not stated): “Not Active” and 90%.
The matching figures for `CC(=O)Nc1ccccc1C[S+]([O-])c1nccn1-c1ccccn1` (configuration not stated): “Not Active” and 99%.
For the molecule `Cc1cccnc1-n1ccnc1[S+]([O-])Cc1ccccc1-n1cccc1` (configuration not stated), in assay [1], the IC50 result is “Not Active”. Further, in [2], the inhibition amounted to 47%.
For `COc1cccnc1-n1ccnc1[S+]([O-])Cc1ccccc1NC(C)=O` (configuration not stated) the same measures were “Not Active” and 90%.
For `CN(C)c1ccccc1C[S+]([O-])c1nc(-c2ccccc2)cn1C` (configuration not stated), in [1], the IC50 entry is given as “Not Active”. Besides, in assay [2], the inhibition was 0%.
In the case of `COc1cccnc1-n1ccnc1[S+]([O-])Cc1ccccc1N1CCCCC1` (configuration not stated), the IC50 result in assay [1] is “Not Active”. This molecule yielded an inhibition in [2] of 62%.
The matching figures for `CN(C)c1ccccc1C[S+]([O-])c1nc(-c2ccccc2)cn1Cc1ccccc1` (configuration not stated): “Not Active” and 0%.
`CN(C)c1ccccc1C[S+]([O-])c1nccn1-c1cccnc1` (configuration not stated): the IC50 entry in [1] is “Not Active”. Further, in assay [2], the inhibition turned out to be 30%.
`Cc1cccnc1-n1ccnc1[S+]([O-])Cc1ccccc1N1CCCCC1` (configuration not stated): the IC50 result in assay [1] is given as “Not Active”. In assay [2], this molecule showed an inhibition of 82%.
For `[O-][S+](Cc1ccccc1-n1cccc1)c1nccn1-c1ccccn1` (configuration not stated) the same measures were “Not Active” and 88%.
With `[O-][S+](Cc1ccccc1-n1cccc1)c1nc2c(n1-c1ccccn1)CCC2` (configuration not stated), the IC50 result in assay [1] is reported as “Not Active”. This molecule also displayed an inhibition in assay [2] of 21%.
With `Cc1cccnc1-n1c([S+]([O-])Cc2ccccc2N)nc2c1CCC2` (configuration not stated), the IC50 in assay [10] was above 100 µM. In addition, the Control was found to be 46% in assay [11]; 88.9% in [12]; 72.9% in [13]; 48.8% in assay [7]; 69.2% in assay [14]; 95.4% in assay [8]. Also, the Control in [15] is 79.6%. Also, in [2], the inhibition was found to be 95%.
In the case of `CCN(CC)c1ccccc1C[S+]([O-])c1nccn1-c1ncccc1OC` (configuration not stated), in [1], the IC50 result is listed as “Not Active”. Further, the inhibition in assay [2] was 94%.
For `CN(C)c1ccccc1C[S+]([O-])c1ncc(-c2ccccc2)n1-c1ccccc1` (configuration not stated), the IC50 result in assay [1] is reported as “Not Active”. This molecule gave an inhibition in [2] of 0%.
As for `CCN(CC)c1ccccc1C[S+]([O-])c1nc2c(n1Cc1ccccn1)CCC2` (configuration not stated), the IC50 result in [1] is “Not Active”. Also, the inhibition in assay [2] worked out at 38%.

The values above are taken from ChEMBL document CHEMBL1129052, “2-[(2-Aminobenzyl)sulfinyl]-1-(2-pyridyl)-1,4,5,6-tetrahydrocyclopent[d]imidazoles as a novel class of gastric H+/K+-ATPase inhibitors” (J Med Chem, 1996).
